Measurements taken from patent publication US20080021086A1, “Pharmaceutical Composition for Prevention or Treatment of Lipid Metabolism Disorder” (KISSEI PHARMACEUTICAL CO., LTD., priority 2004, published 2008).

Legend:
[1] = system: Type 2 diabetic patients; assay: Clinical efficacy on lipid metabolism disorders in diabetic patients (clinical study of mitiglinide calcium hydrate tablets); assay type: in vivo, human
Protocol: The following clinical study was conducted in Type 2 diabetic patients using tablets containing 5 mg of mitiglinide calcium hydrate and tablets containing 10 mg of mitiglinide calcium hydrate.
Patients included: Type 2 diabetic patients;
Mode of dosing: oral administration of 5 to 20 mg as a single dose three times per day just before (5 minutes before) each meal;
Dosing period: 28 weeks to 52 weeks;
Major items of observation: stabilized hemoglobin A1c (HbA1c), biochemical examination of blood (total cholesterol, triglyceride, LDL-cholesterol, HDL-cholesterol, free fatty acid);
Statistical Method: in all patients with an abnormal value of each lipid at pretreatment and without any hypolipidemic agent, significance test was conducted on the average of the final evaluation against the average of the pretreatment (*: P<0.05, **: P<0.01).
Patients with 150 mg/dL or more of serum TG at pretreatment were picked out as an abnormal group, the efficacy of mitiglinide calcium hydrate was evaluated on the group.
Patients with 200 mg/dL or more of serum TC at pretreatment were picked out as an abnormal group, the efficacy of mitiglinide calcium hydrate was evaluated.
Patients with 0.86 mEq/L or more of serum free fatty acid (FFA), 120 mg/dL or more of LDL-cholesterol (LDL-C) and less than 40 mg/dL of HDL-cholesterol at pretreatment, respectively, were picked out as abnormal groups, the efficacy of mitiglinide calcium hydrate was evaluated.

[2] = after 12-week repeated administration compared to pretreatment; cited from earlier work
[3] = system: diabetic patient; settings: single dose; cited from earlier work
[4] = system: diabetic patients; settings: single dose, compared to placebo; cited from earlier work
[5] = Example 2, person, 52 weeks vs pretreatment
[6] = Example 4, person, 40 weeks vs pretreatment
[7] = Example 5, person, 24 weeks vs pretreatment
[8] = Example 6, person, 52 weeks vs pretreatment
[9] = Example 7, person, 52 weeks vs pretreatment

## O.O.O=C(O)[C@H](CC(=O)N1C[C@H]2CCCC[C@H]2C1)Cc1ccccc1.[Ca] [mitiglinide calcium hydrate, (2S)-2-benzyl-3-(cis-hexa hydro-2-isoindolinylcarbonyl)propionic acid calcium dihydrate]
[1]; Example 2, person, 10 mg till 16th week then 20 mg, after 52-week administration, pretreatment 0.94
  FFA at the final evaluation: 0.26 mEq/L
[1]; Example 2, person, 10 mg till 16th week then 20 mg, after 52-week administration, pretreatment 137
  LDL-C at the final evaluation: 108 mg/dL
[1]; Example 2, person, 10 mg till 16th week then 20 mg, after 52-week administration, pretreatment 240
  TC at the final evaluation: 185 mg/dL
[1]; [5]
  change of FFA: −0.68 mEq/L
  change of LDL-C: -29 mg/dL
  change of TC: -55 mg/dL
[1]; Example 3, person, 10 mg, after 52-week administration, pretreatment 171
  TG at the final evaluation: 110 mg/dL
[1]; Example 3, person, 52 weeks vs pretreatment
  change of TG: -61 mg/dL
[1]; Example 4, person, 10 mg till 16th week then 20 mg, after 40-week administration, pretreatment 163
  TG at the final evaluation: 101 mg/dL
[1]; Example 4, person, 10 mg till 16th week then 20 mg, after 40-week administration, pretreatment 214
  TC at the final evaluation: 162 mg/dL
[1]; [6]
  change of TC: -52 mg/dL
  change of TG: -62 mg/dL
[1]; Example 5, person with concomitant hyperlipidemia, 10 mg till 16th week then 20 mg, after 24-week administration, pretreatment 0.53
  FFA at the final evaluation: 0.30 mEq/L
[1]; Example 5, person with concomitant hyperlipidemia, 10 mg till 16th week then 20 mg, after 24-week administration, pretreatment 213
  TG at the final evaluation: 145 mg/dL
[1]; [7]
  change of FFA: −0.23 mEq/L
  change of TG: -68 mg/dL
[1]; Example 6, person with concomitant hyperlipidemia, 10 mg, after 52-week administration, pretreatment 149
  LDL-C at the final evaluation: 134 mg/dL
[1]; Example 6, person with concomitant hyperlipidemia, 10 mg, after 52-week administration, pretreatment 260
  TC at the final evaluation: 203 mg/dL
[1]; [8]
  change of LDL-C: -15 mg/dL
  change of TC: -57 mg/dL
[1]; Example 7, person, 10 mg, after 52-week administration, pretreatment 57
  HDL-C at the final evaluation: 72 mg/dL
[1]; Example 7, person, 10 mg, after 52-week administration, pretreatment 129
  LDL-C at the final evaluation: 116 mg/dL
[1]; Example 7, person, 10 mg, after 52-week administration, pretreatment 170
  TG at the final evaluation: 100 mg/dL
[1]; Example 7, person, 10 mg, after 52-week administration, pretreatment 226
  TC at the final evaluation: 206 mg/dL
[1]; [9]
  change of HDL-C: +15 mg/dL
  change of LDL-C: -13 mg/dL
  change of TC: -20 mg/dL
  change of TG: -70 mg/dL
[1]; all patients with 150 mg/dL or more of pretreatment TG, oral 5 to 20 mg three times per day, 28 to 52 weeks, pretreatment average 262.6, ** P<0.01 vs pretreatment
  Average of TG, Final evaluation: 216.3** mg/dL
[1]; all patients with 200 mg/dL or more of TC at pretreatment, oral 5 to 20 mg three times per day, 28 to 52 weeks, pretreatment average 231.8, * P<0.05 vs pretreatment
  Average of TC, After the end of administration: 226.4* mg/dL
[1]; patients with 120 mg/dL or more of LDL-C at pretreatment, pretreatment average 144.9, ** P<0.01
  Average LDL-C, After the end of administration: 137.7** mg/dL
[1]; patients with 0.86 mEq/L or more of FFA at pretreatment, pretreatment average 1.021, ** P<0.01
  Average FFA, After the end of administration: 0.745** mEq/L
[1]; patients with high blood TG, blood TC, FFA or LDL-C, or low HDL-C
  overall effect on blood lipids: remarkable effects to lower TG, TC, LDL-C or FFA, or increase HDL-C
[1]; patients with less than 40 mg/dL of HDL-C at pretreatment, pretreatment average 34.7, ** P<0.01
  Average HDL-C, After the end of administration: 40.3** mg/dL

## CC(C)[C@H]1CC[C@H](C(=O)N[C@H](Cc2ccccc2)C(=O)O)CC1 [nateglinide]
[2]
  effect on postprandial lipid variation: did not show a significant improvement
[3]
  effect on postprandial increase of triglyceride: suppressed postprandial increase of triglyceride

## CCOc1cc(CC(=O)N[C@@H](CC(C)C)c2ccccc2N2CCCCC2)ccc1C(=O)O [repaglinide]
[4]
  effect on postprandial lipid variation: did not show significant improving effect
